Experiments:
[1] = molecular target: N-methyl-D-aspartate receptor (NMDAR) NR1/NR2B (Homo sapiens, UniProt Q05586+Q13224); assay: two-electrode voltage clamp in oocytes, inhibition concentration-response; type: cell-based
[2] = molecular target: γ-aminobutyric acid type A receptor (GABAAR) α1β2γ2s (Homo sapiens, UniProt P14867+P47870); assay: whole-cell patch clamp, shift of GABA EC50; type: cell-based
Chain of γ-aminobutyric acid type A receptor (GABAAR) α1β2γ2s (P14867 28-456): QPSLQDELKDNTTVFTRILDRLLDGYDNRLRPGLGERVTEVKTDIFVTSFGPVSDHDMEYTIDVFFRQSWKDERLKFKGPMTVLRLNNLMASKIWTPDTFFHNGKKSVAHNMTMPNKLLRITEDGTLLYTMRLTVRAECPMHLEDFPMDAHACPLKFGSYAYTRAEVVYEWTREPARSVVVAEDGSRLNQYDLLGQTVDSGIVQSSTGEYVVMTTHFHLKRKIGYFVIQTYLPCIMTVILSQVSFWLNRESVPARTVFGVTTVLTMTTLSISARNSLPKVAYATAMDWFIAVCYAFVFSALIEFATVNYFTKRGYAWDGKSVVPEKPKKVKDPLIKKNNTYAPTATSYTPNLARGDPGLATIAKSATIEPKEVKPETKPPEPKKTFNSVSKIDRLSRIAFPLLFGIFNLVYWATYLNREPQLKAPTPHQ
Chain of γ-aminobutyric acid type A receptor (GABAAR) α1β2γ2s (P47870 26-512): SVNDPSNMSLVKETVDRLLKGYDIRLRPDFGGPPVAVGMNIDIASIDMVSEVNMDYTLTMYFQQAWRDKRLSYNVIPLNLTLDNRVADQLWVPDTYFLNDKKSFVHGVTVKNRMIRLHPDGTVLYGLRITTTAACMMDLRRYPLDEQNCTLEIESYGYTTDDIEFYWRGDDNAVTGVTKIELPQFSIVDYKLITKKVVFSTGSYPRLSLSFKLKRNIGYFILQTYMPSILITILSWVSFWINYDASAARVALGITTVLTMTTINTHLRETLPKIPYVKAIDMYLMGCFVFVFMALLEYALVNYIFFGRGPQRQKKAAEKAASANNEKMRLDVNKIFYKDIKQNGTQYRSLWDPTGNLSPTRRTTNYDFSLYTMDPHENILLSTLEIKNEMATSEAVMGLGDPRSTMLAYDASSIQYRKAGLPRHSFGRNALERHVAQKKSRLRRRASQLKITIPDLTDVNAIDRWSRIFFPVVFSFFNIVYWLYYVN
Chain of γ-aminobutyric acid type A receptor (GABAAR) α1β2γ2s (P18507 40-475 partner): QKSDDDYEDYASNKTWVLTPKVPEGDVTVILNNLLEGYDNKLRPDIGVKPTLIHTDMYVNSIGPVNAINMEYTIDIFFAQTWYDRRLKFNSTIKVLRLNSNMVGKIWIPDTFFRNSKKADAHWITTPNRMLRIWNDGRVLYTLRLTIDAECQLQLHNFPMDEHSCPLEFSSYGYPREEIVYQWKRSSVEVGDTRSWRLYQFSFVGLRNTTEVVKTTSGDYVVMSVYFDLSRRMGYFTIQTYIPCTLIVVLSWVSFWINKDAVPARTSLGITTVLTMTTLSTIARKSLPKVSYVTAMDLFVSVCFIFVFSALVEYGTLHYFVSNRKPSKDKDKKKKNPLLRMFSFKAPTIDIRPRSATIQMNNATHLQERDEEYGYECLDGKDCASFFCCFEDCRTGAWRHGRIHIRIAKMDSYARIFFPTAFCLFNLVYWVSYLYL

Chain of N-methyl-D-aspartate receptor (NMDAR) NR1/NR2B (Q13224 27-1484, other chains not shown): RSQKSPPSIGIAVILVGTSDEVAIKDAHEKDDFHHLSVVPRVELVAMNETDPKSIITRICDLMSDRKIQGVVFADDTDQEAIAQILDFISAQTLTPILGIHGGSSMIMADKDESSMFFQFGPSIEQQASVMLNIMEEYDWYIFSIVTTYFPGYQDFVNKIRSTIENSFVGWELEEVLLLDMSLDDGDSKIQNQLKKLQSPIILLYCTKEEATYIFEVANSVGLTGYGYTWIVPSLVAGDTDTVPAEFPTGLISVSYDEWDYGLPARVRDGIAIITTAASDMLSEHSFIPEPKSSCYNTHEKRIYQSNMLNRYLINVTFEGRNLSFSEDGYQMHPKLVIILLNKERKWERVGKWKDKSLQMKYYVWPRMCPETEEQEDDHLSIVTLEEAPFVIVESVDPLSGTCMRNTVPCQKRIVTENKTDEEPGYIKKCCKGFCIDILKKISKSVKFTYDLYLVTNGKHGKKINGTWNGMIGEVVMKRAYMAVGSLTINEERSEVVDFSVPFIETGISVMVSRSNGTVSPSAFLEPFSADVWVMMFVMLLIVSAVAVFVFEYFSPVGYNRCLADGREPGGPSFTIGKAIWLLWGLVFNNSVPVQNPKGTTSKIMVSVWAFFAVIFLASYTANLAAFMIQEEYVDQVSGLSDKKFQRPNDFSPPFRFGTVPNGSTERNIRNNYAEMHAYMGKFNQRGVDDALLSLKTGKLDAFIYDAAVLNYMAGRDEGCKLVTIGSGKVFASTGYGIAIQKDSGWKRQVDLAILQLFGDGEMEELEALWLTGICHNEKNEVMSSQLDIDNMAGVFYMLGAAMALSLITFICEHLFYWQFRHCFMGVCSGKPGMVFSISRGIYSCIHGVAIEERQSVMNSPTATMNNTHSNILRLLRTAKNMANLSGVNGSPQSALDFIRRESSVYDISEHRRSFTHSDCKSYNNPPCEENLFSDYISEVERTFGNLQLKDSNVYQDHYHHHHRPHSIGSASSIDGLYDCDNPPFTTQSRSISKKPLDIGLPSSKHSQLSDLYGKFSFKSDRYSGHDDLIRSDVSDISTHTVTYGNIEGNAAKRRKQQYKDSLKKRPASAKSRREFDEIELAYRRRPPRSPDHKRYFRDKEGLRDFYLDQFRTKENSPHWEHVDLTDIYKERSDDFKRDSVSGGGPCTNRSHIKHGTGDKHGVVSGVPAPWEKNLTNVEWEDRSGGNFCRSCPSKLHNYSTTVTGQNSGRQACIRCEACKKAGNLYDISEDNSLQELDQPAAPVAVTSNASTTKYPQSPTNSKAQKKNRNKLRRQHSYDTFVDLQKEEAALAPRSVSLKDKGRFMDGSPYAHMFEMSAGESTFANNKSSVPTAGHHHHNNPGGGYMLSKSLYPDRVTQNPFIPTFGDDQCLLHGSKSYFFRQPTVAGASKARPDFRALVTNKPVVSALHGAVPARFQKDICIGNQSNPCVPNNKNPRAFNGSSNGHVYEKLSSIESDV

Row | SMILES | IC50 [1] | whole-cell patch clamp, shift of GABA EC50 [2]
1 | FC(F)OC(Cl)C(F)(F)F (stereo not drawn) [ISO, isoflurane] | 2400 µM | –
2 | c1ccccc1 [benzene] | 340 ± 40 µM | –
3 | ClC(Cl)Cl [chloroform] | – | Both halothane and chloroform decreased the GABA EC50 in a dose dependent and saturable manner
